From article PMC11173382, “In Vitro Investigations into the Potential Drug Interactions of Pseudoginsenoside DQ Mediated by Cytochrome P450 and Human Drug Transporters” (Molecules, 2024)
pIC50: −log10 of the molar value.

Tests used:
hOAT3 = biological target: T1, hOAT3 (Homo sapiens, UniProt Q8TCC7); experiment: Substrates uptake assay, S2-OAT3 cells (3H-ES); type: in vitro ADME; settings: inhibitor 100 μM
T1 sequence (Q8TCC7 1-542): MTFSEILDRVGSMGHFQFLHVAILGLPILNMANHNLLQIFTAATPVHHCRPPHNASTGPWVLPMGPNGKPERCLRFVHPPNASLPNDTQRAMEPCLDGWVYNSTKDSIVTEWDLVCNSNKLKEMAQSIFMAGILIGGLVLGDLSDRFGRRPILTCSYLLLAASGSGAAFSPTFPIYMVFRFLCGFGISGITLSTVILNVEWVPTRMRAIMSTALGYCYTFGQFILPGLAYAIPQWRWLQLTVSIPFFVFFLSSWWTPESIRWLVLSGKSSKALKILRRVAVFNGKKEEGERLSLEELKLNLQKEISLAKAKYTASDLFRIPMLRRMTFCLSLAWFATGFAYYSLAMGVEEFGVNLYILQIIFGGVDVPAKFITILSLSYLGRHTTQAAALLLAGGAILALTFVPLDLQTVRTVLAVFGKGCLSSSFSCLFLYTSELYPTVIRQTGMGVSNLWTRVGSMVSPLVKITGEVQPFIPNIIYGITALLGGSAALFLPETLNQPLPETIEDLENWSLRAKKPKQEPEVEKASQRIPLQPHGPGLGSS
Text: (§1) Drug transporters mediate the cellular uptake and efflux of their substrates. Therefore, cell lines overexpressing a drug transporter can be utilized to investigate inhibitors of the transporter by assessing changes in substrate uptake. For each drug transporter, we selected a well-characterized inhibitor as the positive control. Radiolabeled substrates were used to indicate the decrease in transport efficiency when the drug transporters were inhibited by PDQ or the control inhibitors.
(§2) The concentrations of the control drugs and the substrates were stated in the assay details. Working solutions of the control inhibitors, the radiolabeled substrates, and each dose of PDQ were prepared at 200 times (200×) more concentrated solutions with DMSO for further dilution.
(§3) Transporter-overexpressed cell lines. Human organic anion transporter-overexpressed cell lines MDCKII-OAT1 and S2-OAT3, human organic anion transport polypeptide-overexpressed cell lines HEK293A-OATP1B1 and HEK293A-OATP1B3, human organic cation transporter 2-overexpressed cell line S2-OCT2, and human multi-drug resistance protein MDR1 (or P-gp)-overexpressed cell line MDCKII-MDR1 were gifts from Japan Fuji Biomedical Co., Ltd. (Fuji, Shizuoka Prefecture, Japan). Breast cancer resistance protein-overexpressed vesicles (sf9-BCRP vesicle) were purchased from GenoMembrane Co., Ltd. (Yokohama, Kanagawa, Japan).
(§4) Substrates uptake assay. In this assay, we studied the inhibition of PDQ against transporters OAT1, OAT3, OCT2, OATP1B1 and OATP1B3 with MDCKII-OAT1, S2-OAT3, S2-OCT2, HEK293A-OATP1B1and HEK293A-OATP1B3 cells, respectively. The radiolabeled substrates for OAT1, OAT3, OATP1B1, OATP1B3 and OCT2 were […], respectively (Table 5). Probenecid ([…]) was the positive control inhibitor of OAT1 and OAT3, while rifampicin ([…]) served as the control drug of OATP1B1 and OATP1B3. For OCT2, we used […] cimetidine to compare with the inhibitory effect of PDQ. Two times (2×) more concentrated working solutions of the drugs and the substrate were prepared with Dulbecco’s phosphate-buffered saline (DPBS, Gibco, Grand Island, NY, USA.). Then, an equal volume of 2× drug solution and 2× radiolabeled substrate solution were mixed as the working mix. All reagents were pre-warmed to 37 °C.
(§5) The cells were digested with 0.05% trypsin/EDTA. The density of the single-cell suspension was adjusted to 2.0 × 10^5 cells/mL for S2 cells and to 1.5 × 10^5 cells/mL for MDCK II and HEK293A cells. The cell suspension was then added to the reservoirs of the 24-well plate for culture until full confluency. The medium in the wells was removed, and the wells were washed with DPBS. Then, the plate was incubated for 10 min with pre-warmed DPBS in the wells. After removing DPBS, […] of working mix was added to each well to initiate the substrate uptake process. The reaction time was 5 min for S2-OCT2 cells, while the other four types of cells were incubated with the reaction mix for 2 min. Cold DPBS was used to terminate the substrate transportation. To each well, […] NaOH ([…]) was added to lyse the cells. Then, […] cell lysate was transferred to the counting vials, and 3 mL scintillation cocktail (Aquasol-2, PerkinElmer, Waltham, MA, USA) was added. […] Each sample was replicated three times (N = 3).
(§6) In = [100 × (U − U0)/(Uc − U0)]%(3)
(§7) The results were expressed as mean ± standard deviation (SD) and analyzed with GraphPad Prism 8.0 software (CA, USA). The IC50 of PDQ was curve-fitted with the FORECAST function. Statistical significance was calculated using a two-tailed test, and a p value < 0.05 was considered as significant.

hOATP1B3 = biological target: T2, hOATP1B3 (Homo sapiens, UniProt Q9NPD5); experiment: Substrates uptake assay, HEK293A-OATP1B3 cells (3H-EG); type: in vitro ADME; settings: inhibitor 60 μM
T2 sequence (Q9NPD5 1-702): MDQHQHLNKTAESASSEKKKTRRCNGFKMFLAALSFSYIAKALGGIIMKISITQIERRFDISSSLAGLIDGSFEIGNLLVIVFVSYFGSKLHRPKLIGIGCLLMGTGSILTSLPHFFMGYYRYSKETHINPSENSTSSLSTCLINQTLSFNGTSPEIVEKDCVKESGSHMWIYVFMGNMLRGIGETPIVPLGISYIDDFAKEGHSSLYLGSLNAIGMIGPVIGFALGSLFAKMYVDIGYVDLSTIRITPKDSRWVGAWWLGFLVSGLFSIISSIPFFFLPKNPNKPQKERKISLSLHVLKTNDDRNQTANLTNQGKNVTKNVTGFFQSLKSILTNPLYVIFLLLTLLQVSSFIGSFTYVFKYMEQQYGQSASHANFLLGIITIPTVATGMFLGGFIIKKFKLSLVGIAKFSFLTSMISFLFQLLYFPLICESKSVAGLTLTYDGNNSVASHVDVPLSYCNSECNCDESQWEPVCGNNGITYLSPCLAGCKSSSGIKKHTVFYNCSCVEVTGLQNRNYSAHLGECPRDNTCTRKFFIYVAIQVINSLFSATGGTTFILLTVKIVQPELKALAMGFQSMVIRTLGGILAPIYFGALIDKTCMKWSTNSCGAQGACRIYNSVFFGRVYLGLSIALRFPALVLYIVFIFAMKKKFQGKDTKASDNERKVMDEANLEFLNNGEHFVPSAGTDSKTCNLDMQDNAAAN
Text: as §1, §2, §3, §4, §5, §6, §7

hOATP1B1 = biological target: T3, hOATP1B1 (Homo sapiens, UniProt Q9Y6L6); experiment: Substrates uptake assay, HEK293A-OATP1B1 cells (3H-ES); type: in vitro ADME; settings: inhibitor 60 μM
T3 sequence (Q9Y6L6 1-691): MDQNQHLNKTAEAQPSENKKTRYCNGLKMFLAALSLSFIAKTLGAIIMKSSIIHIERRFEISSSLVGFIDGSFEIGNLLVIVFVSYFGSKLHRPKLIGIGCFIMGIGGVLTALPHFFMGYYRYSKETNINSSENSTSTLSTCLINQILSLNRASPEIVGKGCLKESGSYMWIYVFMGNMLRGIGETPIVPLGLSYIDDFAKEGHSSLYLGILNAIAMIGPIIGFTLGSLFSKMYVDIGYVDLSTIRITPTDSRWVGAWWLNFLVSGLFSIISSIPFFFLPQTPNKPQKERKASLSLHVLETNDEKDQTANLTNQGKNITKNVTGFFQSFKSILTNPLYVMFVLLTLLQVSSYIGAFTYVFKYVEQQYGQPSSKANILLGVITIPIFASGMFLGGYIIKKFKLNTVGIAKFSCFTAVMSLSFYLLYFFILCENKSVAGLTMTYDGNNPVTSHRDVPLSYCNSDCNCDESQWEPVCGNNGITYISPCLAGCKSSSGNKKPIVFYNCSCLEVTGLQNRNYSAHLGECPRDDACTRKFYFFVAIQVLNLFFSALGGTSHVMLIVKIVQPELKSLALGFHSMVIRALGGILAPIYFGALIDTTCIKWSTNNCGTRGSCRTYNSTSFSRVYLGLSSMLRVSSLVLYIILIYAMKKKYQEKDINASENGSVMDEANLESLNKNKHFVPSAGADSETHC

hOCT2 = biological target: T4, hOCT2 (Homo sapiens, UniProt O15244); experiment: Substrates uptake assay, S2-OCT2 cells (14C-TEA); type: in vitro ADME; settings: inhibitor 600 μM
T4 construct: host or cells: S2-OCT2
T4 sequence (O15244 1-555): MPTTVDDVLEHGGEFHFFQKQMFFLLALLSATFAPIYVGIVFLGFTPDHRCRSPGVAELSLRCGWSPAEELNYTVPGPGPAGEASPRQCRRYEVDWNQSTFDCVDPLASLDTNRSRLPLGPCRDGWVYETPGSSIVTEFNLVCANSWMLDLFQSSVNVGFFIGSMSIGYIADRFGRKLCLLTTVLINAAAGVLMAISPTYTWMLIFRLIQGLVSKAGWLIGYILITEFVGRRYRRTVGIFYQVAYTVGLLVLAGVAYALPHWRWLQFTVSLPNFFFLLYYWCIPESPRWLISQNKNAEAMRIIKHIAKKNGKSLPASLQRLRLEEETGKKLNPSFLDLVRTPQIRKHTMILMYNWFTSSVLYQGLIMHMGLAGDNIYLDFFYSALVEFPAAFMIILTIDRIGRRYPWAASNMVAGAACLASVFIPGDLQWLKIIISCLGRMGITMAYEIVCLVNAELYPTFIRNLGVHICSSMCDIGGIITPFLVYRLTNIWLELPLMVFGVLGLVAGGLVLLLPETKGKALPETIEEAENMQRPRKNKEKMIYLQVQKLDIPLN
Text: as §1, §2, §3, §4, §5, §6, §7

CYP2C9 = tested on: CYP2C9; set-up: method as in PMID 30078466; settings: cited from earlier work

CCCN(CCC)S(=O)(=O)c1ccc(C(=O)O)cc1 [Probenecid, reference compound]
DPM (3H-ES uptake by OAT3) (hOAT3): 1709.3±343.6 DPM

CO[C@H]1/C=C/O[C@@]2(C)Oc3c(C)c(O)c4c(O)c(c(/C=N/N5CCN(C)CC5)c(O)c4c3C2=O)NC(=O)/C(C)=C\C=C\[C@H](C)[C@H](O)[C@@H](C)[C@@H](O)[C@@H](C)[C@H](OC(C)=O)[C@@H]1C [Rifampicin, reference compound]
DPM (3H-EG uptake by OATP1B3) (hOATP1B3): 769.0±126.5 DPM
DPM (3H-ES uptake by OATP1B1) (hOATP1B1): 2798.7±891.8 DPM

CN/C(=N/CCSCc1nc[nH]c1C)NC#N [Cimetidine, reference compound]
DPM (14C-TEA uptake by OCT2) (hOCT2): 417.3±44.8 DPM

CC(C)=CCC[C@](C)(O[C@@H]1O[C@H](CO[C@@H]2O[C@H](CO)[C@@H](O)[C@H](O)[C@H]2O)[C@@H](O)[C@H](O)[C@H]1O)[C@H]1CC[C@]2(C)[C@@H]1[C@H](O)C[C@@H]1[C@@]3(C)CC[C@H](O[C@@H]4O[C@H](CO)[C@@H](O)[C@H](O)[C@H]4O[C@@H]4O[C@H](CO)[C@@H](O)[C@H](O)[C@H]4O)C(C)(C)[C@@H]3CC[C@]12C [Ginsenoside Rb1]
pIC50 (CYP2C9): 5.62
